{"source": "patent US8574563B2", "about": "(Bristol-Myers Squibb Company, priority 2006, dated 2013)", "data": [{"system": "HCV 1b-377-neo replicon cells", "experiment": "HCV replicon assay, HCV 1b-377-neo replicon cells (1b FRET)", "format": "cell-based, Hepatitis C virus genotype 1b", "settings": "Hepatitis C virus, HCV 1b-377-neo replicon cells; HCV 1b genotype; read-out: EC50 range against HCV 1b (Table 2, Range)", "in_short": "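FRET-based replicon assay in HCV 1b-377-neo cells, including a comparison line carrying the NS5A Y2065H mutation that confers resistance to a reference compound.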", "units": {"EC50": "nM"}, "values": [{"molecule": "COC(=O)N[C@@H](C(=O)N1CCC[C@H]1c1ncc(-c2ccc(-c3ccc(-c4cnc([C@@H]5CCCN5C(=O)C(c5cccc(Cl)c5)N(C)C)[nH]4)cc3)cc2)[nH]1)c1ccccc1", "note": "(stereo partly drawn) [Example 84-57, methyl ((1R)-2-((2S)-2-(5-(4′-(2-((2S)-1-((3-chlorophenyl)(dimethylamino)acetyl)-2-pyrrolidinyl)-1H-imidazol-5-yl)-4-biphenylyl)-1H-imidazol-2-yl)-1-pyrrolidinyl)-2-oxo-1-phenylethyl)carbamate]", "EC50": "0.001 to 0.999"}, {"molecule": "COCC(=O)N1CCC[C@H]1c1ncc(-c2ccc(-c3ccc(-c4cnc([C@@H]5CCCN5C(=O)[C@H](NC(=O)OC)c5ccccc5)[nH]4)cc3)cc2)[nH]1", "note": "[Example 55, methyl ((1R)-2-((2S)-2-(5-(4′-(2-((2S)-1-(methoxyacetyl)-2-pyrrolidinyl)-1H-imidazol-5-yl)-4-biphenylyl)-1H-imidazol-2-yl)-1-pyrrolidinyl)-2-oxo-1-phenylethyl)carbamate]", "EC50": "0.001 to 0.999"}, {"molecule": "C[C@H]1OC(=O)NC1C(=O)N1CCC[C@H]1c1ncc(-c2ccc(-c3ccc(-c4cnc([C@@H]5CCCN5C(=O)C5NC(=O)O[C@@H]5C)[nH]4)cc3)cc2)[nH]1", "note": "(stereo in doubt) [cj-133, (4S,5R,4′S,5′R)-4,4′-(4,4′-biphenyldiylbis(1H-imidazole-5,2-diyl(2S)-2,1-pyrrolidinediylcarbonyl))bis(5-methyl-1,3-oxazolidin-2-one)]", "EC50": "1 to 99"}, {"molecule": "COC(=O)N[C@H](C(=O)N1CCC[C@H]1c1nc(-c2ccc(-c3ccc(-c4c[nH]c([C@@H]5CCCN5C(=O)[C@@H](NC5CCOCC5)C(C)C)n4)cc3)cc2)c[nH]1)C(C)C", "note": "[Example F49, methyl ((1S)-2-methyl-1-(((2S)-2-(4-(4′-(2-((2S)-1-(N-(tetrahydro-2H-pyran-4-yl)-L-valyl)-2-pyrrolidinyl)-1H-imidazol-4-yl)-4-biphenylyl)-1H-imidazol-2-yl)-1-pyrrolidinyl)carbonyl)propyl)carbamate]", "EC50": "1 to 99"}, {"molecule": "COC(=O)N[C@@H](C(=O)N1CCC[C@H]1c1ncc(-c2ccc(-c3ccc(-c4cnc([C@@H]5CCCN5C(=O)C(c5cccc(C(F)(F)F)c5)N(C)C)[nH]4)cc3)cc2)[nH]1)c1ccccc1", "note": "(stereo partly drawn) [Example 84-54, methyl ((1R)-2-((2S)-2-(5-(4′-(2-((2S)-1-((dimethylamino)(3-(trifluoromethyl)phenyl)acetyl)-2-pyrrolidinyl)-1H-imidazol-5-yl)-4-biphenylyl)-1H-imidazol-2-yl)-1-pyrrolidinyl)-2-oxo-1-phenylethyl)carbamate]", "EC50": "0.001 to 0.999"}, {"molecule": "COC(=O)N[C@H](C(=O)N1[C@H](c2ncc(-c3ccc(-c4ccc(-c5cnc([C@@H]6C[C@@H]7C[C@@H]7N6C(=O)[C@@H](NC(=O)OC)C6CC6)[nH]5)cc4)cc3)[nH]2)C[C@@H]2C[C@@H]21)C1CC1", "note": "[Example M127, dimethyl (4,4′-biphenyldiylbis(1H-imidazole-5,2-diyl(1S,3S,5S)-2-azabicyclo[3.1.0]hexane-3,2-diyl((1S)-1-cyclopropyl-2-oxo-2,1-ethanediyl)))biscarbamate]", "EC50": "1 to 99"}, {"molecule": "COC(=O)N[C@@H](C(=O)N1CCC[C@H]1c1ncc(-c2ccc(-c3ccc(-c4cnc([C@@H]5CCCN5C(=O)[C@@H](C)NC(C)=O)[nH]4)cc3)cc2)[nH]1)c1ccccc1", "note": "[Example 53, methyl ((1R)-2-((2S)-2-(5-(4′-(2-((2S)-1-(N-acetyl-D-alanyl)-2-pyrrolidinyl)-1H-imidazol-5-yl)-4-biphenylyl)-1H-imidazol-2-yl)-1-pyrrolidinyl)-2-oxo-1-phenylethyl)carbamate]", "EC50": "0.001 to 0.999"}, {"molecule": "COC(=O)N[C@@H](Cc1ccc(OP(=O)(O)OC)cc1)C(=O)N1CCC[C@H]1c1ncc(-c2ccc(-c3ccc(-c4cnc([C@@H]5CCCN5C(=O)[C@@H](NC(=O)OC)C(C)C)[nH]4)cc3)cc2)[nH]1", "note": "[cj-91, methyl ((1S)-1-(((2S)-2-(5-(4′-(2-((2S)-1-(O-(hydroxy(methoxy)phosphoryl)-N-(methoxycarbonyl)-L-tyrosyl)-2-pyrrolidinyl)-1H-imidazol-5-yl)-4-biphenylyl)-1H-imidazol-2-yl)-1-pyrrolidinyl)carbonyl)-2-methylpropyl)carbamate]", "EC50": "0.001 to 0.999"}, {"molecule": "COC(=O)N[C@@H](C(=O)N1CCC[C@H]1c1ncc(-c2ccc(-c3ccc(-c4cnc([C@@H]5CCCN5C(=O)[C@@H](c5ccccc5)N5CCCCC5)[nH]4)cc3)cc2)[nH]1)c1ccccc1", "note": "[Example 84-1, methyl ((1R)-2-oxo-1-phenyl-2-((2S)-2-(5-(4′-(2-((2S)-1-((2R)-2-phenyl-2-(1-piperidinyl)acetyl)-2-pyrrolidinyl)-1H-imidazol-5-yl)-4-biphenylyl)-1H-imidazol-2-yl)-1-pyrrolidinyl)ethyl)carbamate]", "EC50": "0.001 to 0.999"}, {"molecule": "CC1(O)CCN([C@@H](C(=O)N2CCC[C@H]2c2ncc(-c3ccc(-c4ccc(-c5cnc([C@@H]6CCCN6C(=O)[C@@H](c6ccccc6)N6CCC(C)(O)CC6)[nH]5)cc4)cc3)[nH]2)c2ccccc2)CC1", "note": "[Example 24-2, 1,1′-(4,4′-biphenyldiylbis(1H-imidazole-5,2-diyl(2S)-2,1-pyrrolidinediyl((1R)-2-oxo-1-phenyl-2,1-ethanediyl)))bis(4-methyl-4-piperidinol)]", "EC50": "0.001 to 0.999"}, {"molecule": "COC(=O)c1nc([C@@H]2CCCN2C(=O)[C@@H](c2ccccc2)N(C)C)[nH]c1-c1ccc(-c2ccc(-c3cnc([C@@H]4CCCN4C(=O)[C@@H](c4ccccc4)N(C)C)[nH]3)cc2)cc1", "note": "[Example J17, methyl 2-((2S)-l-((2R)-2-(dimethylamino)-2-phenylacetyl)-2-pyrrolidinyl)-5-(4′-(2-((2S)-1-((2R)-2-(dimethylamino)-2-phenylacetyl)-2-pyrrolidinyl)-1H-imidazol-5-yl)-4-biphenylyl)-1H-imidazole-4-carboxylate]", "EC50": "0.001 to 0.999"}, {"molecule": "COC(=O)N[C@@H](C)C(=O)N1CCC[C@H]1c1nc(-c2ccc(-c3ccc(-c4[nH]c([C@@H]5CCCN5C(=O)[C@H](C)NC(=O)OC)nc4C)cc3)cc2)c(C)[nH]1", "note": "[Example E5k, methyl ((1S)-2-((2S)-2-(4-(4′-(2-((2S)-1-(N-(methoxycarbonyl)-L-alanyl)-2-pyrrolidinyl)-5-methyl-1H-imidazol-4-yl)-4-biphenylyl)-5-methyl-1H-imidazol-2-yl)-1-pyrrolidinyl)-1-methyl-2-oxoethyl)carbamate]", "EC50": "0.001 to 0.999"}, {"molecule": "COC(=O)N[C@@H](C(=O)N1CCC[C@H]1c1ncc(-c2ccc(-c3ccc(-c4[nH]c([C@@H]5CCCN5C(=O)[C@H](NC(=O)OC)c5ccccc5)nc4C(=O)O)cc3)cc2)[nH]1)c1ccccc1", "note": "[Example J30]", "EC50": "1 to 99"}, {"molecule": "COC(=O)N[C@@H](C)C(=O)N1CCC[C@H]1c1ncc(-c2ccc(-c3ccc(-c4nc([C@@H]5CCCN5C(=O)[C@H](C)NC(=O)OC)[nH]c4CO)cc3)cc2)[nH]1", "note": "[Example J14f.1, methyl ((1S)-2-((2S)-2-(4-(4′-(4-(hydroxymethyl)-2-((2S)-1-(N-(methoxycarbonyl)-L-alanyl)-2-pyrrolidinyl)-1H-imidazol-5-yl)-4-biphenylyl)-1H-imidazol-2-yl)-1-pyrrolidinyl)-1-methyl-2-oxoethyl)carbamate]", "EC50": "1 to 99"}, {"molecule": "CNC(=O)N[C@@H](C(=O)N1C[C@H](O)C[C@H]1c1ncc(-c2ccc(-c3ccc(-c4cnc([C@@H]5C[C@@H](O)CN5C(=O)[C@H](NC(=O)NC)c5ccccc5)[nH]4)cc3)cc2)[nH]1)c1ccccc1", "note": "[Example 24-13, N,N″-(4,4′-biphenyldiylbis(1H-imidazole-5,2-diyl((2S,4R)-4-hydroxy-2,1-pyrrolidinediyl)((1R)-2-oxo-1-phenyl-2,1-ethanediyl)))bis(3-methylurea)]", "EC50": "100 to 999"}]}]}
